Columns and labels:
HBsAg = assay: microbe, parasite or virus in culture; conditions: Hepatitis B virus, read-out: average inhibitory rate for HBsAg
HBeAg = assay: microbe, parasite or virus in culture; conditions: Hepatitis B virus, read-out: average inhibitory rate for HBeAg

CC(C)=CCC(OC(=O)C=C(C)C)C1=CC(=O)c2c(O)ccc(O)c2C1=O (stereo not drawn) [β,β-dimethylacrylshikonin]
inhibition at 30 µg/mL (HBsAg): 96.3% | inhibition at 30 µg/mL (HBeAg): 91.6%

Reference: patent US20050222258A1, “Pharmaceuticals comprising shikonins as active constituent” (priority 2003, published 2005)
